Source: patent publication US6087390A, “Derivatives of antifungal substance BE-31405 and process for producing the same” (Banyu Pharmaceutical Co., Ltd., priority 1997, dated 2000)
Values after ≈ are worked out from the molar mass of the structure shown.

test system: Candida albicans IFO1385; experiment: Antifungal activity: MIC against Candida albicans IFO1385 on yeast nitrogen base agar; type: cell-based; settings: 48 h; 2 days of incubation at 37° C., yeast nitrogen base agar with 1% glucose and 0.25% dipotassium hydrogen phosphate; single use; read-out: MIC
Description: ^b MICs were determined against Candida albicans IFO1385 after 2 days
of incubation of the test strain at 37° C. on yeastnitrogen base
agar (containing 1% glucose and 0.25% dipotassium hydrogen phosphate,

How did the MIC turn out when `CCCCCCOC1C2OC3(OCC45CC6C(C)CCC6C6(C=O)CC4C=C(C(C)C)C65C(=O)O)OC2OC1C3O` (stereo not drawn) [Compound 47, 8a-[[[6-(hexyloxy)tetrahydro-7-hydroxy-2,5-methanofuro[2,3-d]-1,3-dioxol-2-yl]oxy]methyl]-4-formyl-4,4a,5,6,7,7a,8,8a-octahydro-7-methyl-3-(1-methylethyl)-1,4-methano-s-indacene-3a(1H)-carboxylic acid] was run?
The MIC was 1.56 µg/mL (≈ 2.71 µM).

For `CCCCC(=O)OC1C2OC3(OCC45CC6C(C)CCC6C6(C=O)CC4C=C(C(C)C)C65C(=O)O)OC2OC1C3O` (stereo not drawn) [Compound 10, 8a-[[[6-(n-valeryloxy)tetrahydro-7-hydroxy-2,5-methanofuro[2,3-d]-1,3-dioxol-2-yl]oxy]methyl]-4-formyl-4,4a,5,6,7,7a,8,8a-octahydro-7-methyl-3-(1-methylethyl)-1,4-methano-s-indacene-3a(1H)-carboxylic acid], which MIC is on record?
Its MIC is 6.25 µg/mL (≈ 10.9 µM).

`CCCCCCCCCCOC1C2OC3(OCC45CC6C(C)CCC6C6(C=O)CC4C=C(C(C)C)C65C(=O)O)OC2OC1C3O` (stereo not drawn) [Compound 50, 8a-[[[6-(decyloxy)tetrahydro-7-hydroxy-2,5-methanofuro[2,3-d]-1,3-dioxol-2-yl]oxy]methyl]-4-formyl-4,4a,5,6,7,7a,8,8a-octahydro-7-methyl-3-(1-methylethyl)-1,4-methano-s-indacene-3a(1H)-carboxylic acid] was tested. Which MIC did it give?
The MIC was 3.13 µg/mL (≈ 4.96 µM).

For `CCCCCC(=O)OC1C2OC3(OCC45CC6C(C)CCC6C6(C=O)CC4C=C(C(C)C)C65C(=O)O)OC2OC1C3O` (stereo not drawn) [Compound 13, 8a-[[[6-(n-hexanoyloxy)tetrahydro-7-hydroxy-2,5-methanofuro[2,3-d]-1,3-dioxol-2-yl]oxy]methyl]-4-formyl-4,4a,5,6,7,7a,8,8a-octahydro-7-methyl-3-(1-methylethyl)-1,4-methano-s-indacene-3a(1H)-carboxylic acid], which MIC is on record?
Its MIC is 3.13 µg/mL (≈ 5.32 µM).

How did the MIC turn out when `CC(C)CCOC1C2OC3(OCC45CC6C(C)CCC6C6(C=O)CC4C=C(C(C)C)C65C(=O)O)OC2OC1C3O` (stereo not drawn) [Compound 44, 8a-[[[6-(isopentyloxy)tetrahydro-7-hydroxy-2,5-methanofuro[2,3-d]-1,3-dioxol-2-yl]oxy]methyl]-4-formyl-4,4a,5,6,7,7a,8,8a-octahydro-7-methyl-3-(1-methylethyl)-1,4-methano-s-indacene-3a(1H)-carboxylic acid] was run?
The MIC was 3.13 µg/mL (≈ 5.58 µM).

`CCCCCCC(=O)OC1C2OC3(OCC45CC6C(C)CCC6C6(C=O)CC4C=C(C(C)C)C65C(=O)O)OC2OC1C3O` (stereo not drawn) [Compound 14, 8a-[[[6-(n-heptanoyloxy)tetrahydro-7-hydroxy-2,5-methanofuro[2,3-d]-1,3-dioxol-2-yl]oxy]methyl]-4-formyl-4,4a,5,6,7,7a,8,8a-octahydro-7-methyl-3-(1-methylethyl)-1,4-methano-s-indacene-3a(1H)-carboxylic acid] was tested. Which MIC did it give?
Its MIC is 1.56 µg/mL (≈ 2.59 µM).

Which MIC does the source give for `CCCCCOC1C2OC3(OCC45CC6C(C)CCC6C6(C=O)CC4C=C(C(C)C)C65C(=O)O)OC2OC1C3O` (stereo not drawn) [Compound 41, 8a-[[[6-(pentyloxy)tetrahydro-7-hydroxy-2,5-methanofuro[2,3-d]-1,3-dioxol-2-yl]oxy]methyl]-4-formyl-4,4a,5,6,7,7a,8,8a-octahydro-7-methyl-3-(1-methylethyl)-1,4-methano-s-indacene-3a(1H)-carboxylic acid] here?
The MIC was 1.56 µg/mL (≈ 2.78 µM).

For `CCCCOC1C2OC3(OCC45CC6C(C)CCC6C6(C=O)CC4C=C(C(C)C)C65C(=O)O)OC2OC1C3O` (stereo not drawn) [Compound 38, 8a-[[[6-(butoxy)tetrahydro-7-hydroxy-2,5-methanofuro[2,3-d]-1,3-dioxol-2-yl]oxy]methyl]-4-formyl-4,4a,5,6,7,7a,8,8a-octahydro-7-methyl-3-(1-methylethyl)-1,4-methano-s-indacene-3a(1H)-carboxylic acid], which MIC is on record?
The MIC was 3.13 µg/mL (≈ 5.73 µM).

same assay, conditions: 2 days of incubation at 37° C., yeast nitrogen base agar with 1% glucose and 0.25% dipotassium hydrogen phosphate; single use

Which MIC does the source give for `COC1C2OC3(OCC45CC6C(C)CCC6C6(C=O)CC4C=C(C(C)C)C65C(=O)O)OC2OC1C3O` (stereo not drawn) [SCH57404 (xylarin), reference compound] here?
The MIC was 100 µg/mL (≈ 198 µM).

Which MIC does the source give for `CC(=O)O[C@@H]1[C@@H]2O[C@@]3(OC[C@@]45C[C@@H]6[C@H](C)CC[C@H]6[C@@]6(C=O)C[C@@H]4C=C(C(C)C)[C@@]56C(=O)O)O[C@@H]2O[C@@H]1[C@@H]3O` [BE-31405] here?
The MIC was 50 µg/mL (≈ 93.9 µM).

test system: a certain kind of fungus; experiment: not given; settings: in vitro, acidic conditions

How did the “growth inhibitory (antifungal) activity under acidic conditions” value turn out when `CC(=O)O[C@@H]1[C@@H]2O[C@@]3(OC[C@@]45C[C@@H]6[C@H](C)CC[C@H]6[C@@]6(C=O)C[C@@H]4C=C(C(C)C)[C@@]56C(=O)O)O[C@@H]2O[C@@H]1[C@@H]3O` [BE-31405] was run?
Its value is “shows growth inhibitory activity against a certain kind of fungus in vitro especially under acidic conditions”.

same assay, conditions: neutral conditions

Which “antifungal activity under neutral conditions” value does the source give for `CC(=O)O[C@@H]1[C@@H]2O[C@@]3(OC[C@@]45C[C@@H]6[C@H](C)CC[C@H]6[C@@]6(C=O)C[C@@H]4C=C(C(C)C)[C@@]56C(=O)O)O[C@@H]2O[C@@H]1[C@@H]3O` [BE-31405] here?
The value was “the activity remarkably lowers under neutral conditions”.
